These results are taken from ChEMBL document CHEMBL4118185, “Kakeromamide A, a new cyclic pentapeptide inducing astrocyte differentiation isolated from the marine cyanobacterium Moorea bouillonii” (Bioorg Med Chem Lett, 2018).

Active and inactive are the calls of the source. The calls are words filed in the database; no cut-off is given here.

The test system of data set [1] is HeLa. Description: Cytotoxicity against human HeLa cells after 72 hrs by MTT assay. The data set is classed as functional, cell-based. In general terms: Formazan colour is commonly taken as a measure of viable cells.
Data set [2] has as its system P388. Put plainly: Cytotoxicity against mouse P388 cells at 10 uM after 72 hrs by MTT assay. The data set is classed as functional, cell-based.
The species entered for data set [3] is Mus musculus. Put plainly: Induction of differentiation of mouse neuronal stem cells into astrocytes after 72 hrs by Hoechst 33342 staining based immunofluorescence assay. The data set is classed as functional.
For data set [4], the species on record is Mus musculus. Description: Suppression of differentiation of mouse neuronal stem cells into neurons at 2.5 to 10 uM after 72 hrs by NeuO-Hoechst 33342 staining-based microscopic method. The format is functional.
The nature of data set [5]: Cytotoxicity against mouse neuronal stem cells at 2.5 to 10 after 72 hrs. The format is cell-based.

Regarding `CCC[C@H]1NC(=O)c2csc(n2)[C@H](C(C)C)NC(=O)[C@H](Cc2ccc(OC)cc2)N(C)C(=O)[C@H](Cc2ccc(OC)cc2)N(C)C(=O)[C@H](C(C)C)NC(=O)[C@H]1C`, in data set [1], the IC50 (in general, the point on the concentration scale where inhibition reaches its midpoint) is 10 µM. Further, the result in data set [2] was inactive. The results for the Activity result in data set [3] and in data set [5] were “Dose-dependent effect” and “Non-Toxic”, respectively. In data set [4], the outcome was Active.
